Assay results published in ChEMBL document CHEMBL1138745, “Structural basis for the potent antisickling effect of a novel class of five-membered heterocyclic aldehydic compounds” (2004).

Assays:
Type in all cases: functional
Details in all cases: Homo sapiens
[1] = Percent inhibition of sickling of sickle red blood (SS) cells under 4% oxygen was evaluated at 1 mM concentration
[2] = Percent inhibition of sickling of sickle red blood (SS) cells under 4% oxygen was evaluated at 2 mM concentration
[3] = Percent inhibition of sickling of sickle red blood (SS) cells under 4% oxygen was evaluated at 5 mM concentration

| Compound | inhibition at 1000 µM [1] | inhibition at 2000 µM [2] | inhibition at 5000 µM [3] |
| --- | --- | --- | --- |
| O=Cc1ccc(CO)o1 [AES-103] | 13% | 42% | 90% |
| COc1cc(C=O)ccc1O [VANILLIN] | – | – | 20% |
| O=Cc1ccco1 [FURFURAL] | 0% | 0% | 30% |
